The structures appear in SMILES notation.

This experiment relates to primary human ovarian tumors (dissociated cells). Nature of the experiment: Tumor Chemosensitivity Assay (TCA): Compound B-2 with doxorubicin, primary ovarian tumors, viability after 6 days, Bliss. The class given is cell-based. Set-up: Average Bliss score: scale not given here. Here is the method: Specifically, one study described the combination of Compound B-2 and doxorubicin hydrochloride. In this study, a panel of primary human ovarian and endometrial tumors was dissociated and treated with Compound B-2 to determine the effectiveness of this selective DNA-PK inhibitor to enhance the activity of doxorubicin.
In both studies, cell viability was assessed after 6 days in culture. Statistical analysis of the combination matrix was performed to assess whether synergy, additivity, or antagonism of the combination treatments were observed.
Materials: Primary patient samples (See Tables 16 and 17, below) were excised from mice when they reached 500 mg to 1000 mg in size and processed immediately, or after overnight shipment. Tumors were serially passaged by subcutaneous implantation of 50 mg to 150 mg fragments into the flanks of immunocompromised (nude) mice. Tumors were used within the first 5 or 7 passages.
Tumor Chemosensitivity Assay (TCA): Primary tumor samples were grown and serially passaged in immunocompromised mice. Tumors were mechanically dissociated into small fragments (1 mm to 2 mm) with scalpels in phosphate buffered saline (PBS or RPMI) and centrifuged at 200×g for 5 minutes at room temperature in 50 mL centrifuge tubes. Samples were resuspended in 10 mL of cell dissociation reagent and enzymatically digested with mechanical agitation for 1 to 3 hours at 37° C., 5% CO2 to a single cell suspension. Ten mL of complete RPMI-1640 media was added to the cell mixture and pipetted up and down 4 to 5 times. The mixture was then passed through a 70 μm or 100 μm mesh strainer to remove undigested tumor. The filtrate was then centrifuged 200×g for 5 minutes at room temperature and resuspended in 20 mL complete RPMI-1640. This cell suspension was slowly layered onto 20 mL of room temperature Histopaque and centrifuged at 400×g for 15 minutes at room temperature without a brake. The interface was transferred to a new 50 mL centrifuge tube and 15 mL of complete RPMI-1640 was added. This suspension was centrifuged at 200×g at room temperature, and the resulting pellet was resuspended in 10 mL of complete PC-1 media, except for pancreatic tumors in which case Pancreatic Medium was used. Cells were diluted in Trypan blue, and viable cells that excluded the dye were counted. Only the larger, tumor cells were included in the cell count. Cells were diluted in complete PC-1 or Pancreatic media, as appropriate for the cells, and were plated at 15,000 to 20,000 cells per well in 100-135 μL in ultra-low attachment U-bottom plates.
Compound Addition: For these studies, a 10 mM stock of the DNA-PK inhibitor (Compound B-1 or Compound B-2) was made in DMSO and used to add to cells from most tumors with HP D300 Digital Dispenser (Tecan US, Morrisville, NC, USA), or diluted into the appropriate media (PC-1 or pancreatic media) as a 5-10× stock and added to cells (OVX001 and ENX001, 005). PC-1, pancreatic media, and chemotherapeutics were also added so that final well volume was 150 μL. Doxorubicin was made as DMSO stock of 1 or 10 mM and added to cells for most tumors with HP D300 Digital Dispenser, or diluted into PC-1 as 5-10× stock and added to cells (OVX001 and ENX001, 005). Cisplatin (cis-diammine platinum(II), dichloride) was prepared fresh to 10 mM in warm (60° C.) distilled water and diluted in PC-1 as a 5-10× stock. […] Different starting concentrations, dose ranges, and number of doses were used for each experiment based on the response data available at the time.
For doxorubicin hydrochloride experiments, combinations with Compound B-2 at all concentrations were run in triplicate. A 6×3 matrix was designed on each plate: 0.73 μM and 2.2 μM Compound B-2, or 0.37 μM and 4.4 μM Compound B-2 on some tumors where additional cells were available, plus no treatment control, in 3 columns each of 6 wells. Doxorubicin hydrochloride (plus ‘no treatment’ control) was added to 9 wells in rows of this plate. […]

As to `[2H]c1nc(C)nc([2H])c1-c1cc(NC[C@@H](C)c2cccc3c(C(=O)NC)ccnc23)ncn1` [Compound B-2], under “11 ovarian tumors”, the “tumors that showed synergy or additivity” value worked out at 100%. For the setting “four of 11 ovarian tumors”, the “tumors that showed strong synergy” value stood at 36%. Further, the “Average Bliss score” value by setting is: (tumor CTG-0252 (Ovarian)) 14; (tumor CTG-0253 (Ovarian)) 6; (tumor CTG-0258 (Ovarian)) 9; (tumor CTG-0486 (Ovarian)) 5; (tumor CTG-0791 (Ovarian)) 14; (tumor CTG-0947 (Ovarian)) 10. In addition, the “Average Bliss score” value runs as follows: (tumor CTG-0992 (Ovarian)) 8; (tumor CTG-1166 (Ovarian)) 8; (tumor CTG-1301 (Ovarian)) 8; (tumor CTG-1423 (Ovarian)) 12; (tumor OVX001 (Ovarian)) 11. Besides, the Synergy/Additivity/Antagonism entry by setting is: (tumor CTG-0252 (Ovarian)) “Strongly Synergistic (greater than 10 are considered strongly synergistic)”; (tumor CTG-0253 (Ovarian)) “Synergistic (greater than 5 are considered synergistic)”; (tumor CTG-0258 (Ovarian)) “Synergistic (greater than 5 are considered synergistic)”; (tumor CTG-0486 (Ovarian)) “Additive (Values between 5 and −5 are considered additive)”; (tumor CTG-0791 (Ovarian)) “Strongly Synergistic (greater than 10 are considered strongly synergistic)”; (tumor CTG-0947 (Ovarian)) “Synergistic (greater than 5 are considered synergistic)”. The Synergy/Additivity/Antagonism entry runs as follows: (tumor CTG-0992 (Ovarian)) “Synergistic (greater than 5 are considered synergistic)”; (tumor CTG-1166 (Ovarian)) “Synergistic (greater than 5 are considered synergistic)”; (tumor CTG-1301 (Ovarian)) “Synergistic (greater than 5 are considered synergistic)”; (tumor CTG-1423 (Ovarian)) “Strongly Synergistic (greater than 10 are considered strongly synergistic)”; (tumor OVX001 (Ovarian)) “Strongly Synergistic (greater than 10 are considered strongly synergistic)”.

Source of the values: US11980633B2, “Method for treating cancer using a combination of DNA-damaging agents and DNA-PK inhibitors” (Vertex Pharmaceuticals Incorporated, priority 2016, dated 2024).
